Reference: PMC3893156 (Molecular Genetics & Genomic Medicine, 2013)
Where a chain is given by its changes, count along the chain named.

Key:
[1] = molecular target: T1, Phosphomannomutase 2 (F119L-PMM2) (Homo sapiens, UniProt O15305, F119L); experiment: activation of purified enzyme; type: biochemical
T1 sequence (O15305 1-246 F119L): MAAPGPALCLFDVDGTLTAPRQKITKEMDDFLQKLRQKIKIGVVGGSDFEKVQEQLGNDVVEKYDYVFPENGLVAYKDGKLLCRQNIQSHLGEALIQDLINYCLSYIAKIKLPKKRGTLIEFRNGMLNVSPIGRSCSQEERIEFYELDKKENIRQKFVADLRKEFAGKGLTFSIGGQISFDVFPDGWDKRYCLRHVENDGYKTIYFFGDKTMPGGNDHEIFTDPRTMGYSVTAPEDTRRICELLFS

[2] = molecular target: T2, Phosphomannomutase 2 (wt-PMM2) (Homo sapiens, UniProt O15305); experiment: activation of purified enzyme; type: biochemical
T2 sequence (O15305 1-246): T1 sequence (O15305 1-246 F119L) with L119F

[3] = molecular target: T2, Phosphomannomutase 2 (wt-PMM2); experiment: thermal shift, size exclusion chromatography; type: binding
[4] = molecular target: T2, Phosphomannomutase 2 (wt-PMM2); experiment: thermal shift assay; type: binding

Compound: O=P(O)(O)OC[C@H]1O[C@H](OP(=O)(O)O)[C@H](O)[C@@H](O)[C@@H]1O [Glc-1,6-P2, glucose-1,6-bisphosphate]
- EC50 [1]: 36 µM
- EC50 [2]: 10 µM

Compound: O=P(O)(O)OC[C@H]1OC(O)[C@H](O)[C@@H](O)[C@@H]1O (stereo partly drawn) [Glc-6-P, D-glucose 6-phosphate]
- thermal shift, size exclusion chromatography (dimer stabilization) [3]: Glc-1-P and Glc-6-P produce a small, but statistically significant increase of the midpoint temperature

Compound: O=P(O)(O)OC[C@H]1O[C@H](OP(=O)(O)O)[C@@H](O)[C@@H](O)[C@@H]1O [Man-1,6-P2, mannose 1,6-bisphosphate]
- thermal shift assay [4]: Glc-1,6-P2 is slightly more effective than Man-1,6-P2 (Table S1)
